Measurements reported in PubChem BioAssay (NCI).
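GI50 is the concentration that inhibits growth by half. TGI: total growth inhibition.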

Experiments:
Test in all cases: NCI anticancer screen, dose series, 384-well format
OVCAR-3 ovarian = tested on: OVCAR-3 ovarian
NCI-H322M lung = tested on: NCI-H322M lung
NCI-H226 lung = tested on: NCI-H226 lung
SK-OV-3 ovarian = tested on: SK-OV-3 ovarian
SN12C renal = tested on: SN12C renal
LOX IMVI melanoma = tested on: LOX IMVI melanoma
CAKI-1 renal = tested on: CAKI-1 renal
SF-539 CNS = tested on: SF-539 CNS
KM12 colon = tested on: KM12 colon
COLO 205 colon = tested on: COLO 205 colon
EKVX NSCLC = tested on: EKVX NSCLC
RPMI-8226 leukemia = tested on: RPMI-8226 leukemia
MDA-MB-435 melanoma = tested on: MDA-MB-435 melanoma
OVCAR-8 ovarian = tested on: OVCAR-8 ovarian
SW-620 colon = tested on: SW-620 colon
MDA-MB-231 breast = tested on: MDA-MB-231 breast
HOP-92 NSCLC = tested on: HOP-92 NSCLC
MCF7 breast = tested on: MCF7 breast
SNB-19 CNS = tested on: SNB-19 CNS
ACHN renal = tested on: ACHN renal
MOLT-4 leukemia = tested on: MOLT-4 leukemia
MALME-3M melanoma = tested on: MALME-3M melanoma
IGROV1 ovarian = tested on: IGROV1 ovarian
K-562 leukemia = tested on: K-562 leukemia
NCI-H23 lung = tested on: NCI-H23 lung
U251 glioblastoma = tested on: U251 glioblastoma
M14 melanoma = tested on: M14 melanoma
T-47D breast = tested on: T-47D breast
HOP-62 NSCLC = tested on: HOP-62 NSCLC
SK-MEL-28 melanoma = tested on: SK-MEL-28 melanoma
HT29 colon = tested on: HT29 colon
A549 NSCLC = tested on: A549 NSCLC
HS 578T breast = tested on: HS 578T breast
NCI-H460 NSCLC = tested on: NCI-H460 NSCLC
PC-3 prostate = tested on: PC-3 prostate
SNB-75 CNS = tested on: SNB-75 CNS
OVCAR-4 ovarian = tested on: OVCAR-4 ovarian
UACC-257 melanoma = tested on: UACC-257 melanoma
SF-268 CNS = tested on: SF-268 CNS
HCC-2998 colon = tested on: HCC-2998 colon
TK-10 renal = tested on: TK-10 renal
HL-60(TB) leukemia = tested on: HL-60(TB) leukemia
MDA-MB-468 breast = tested on: MDA-MB-468 breast
NCI-H522 lung = tested on: NCI-H522 lung
NCI/ADR-RES ovarian = tested on: NCI/ADR-RES ovarian
HCT-116 colon = tested on: HCT-116 colon
CCRF-CEM leukemia = tested on: CCRF-CEM leukemia
SK-MEL-5 melanoma = tested on: SK-MEL-5 melanoma
786-0 renal = tested on: 786-0 renal
HCT-15 colon = tested on: HCT-15 colon
BT-549 breast = tested on: BT-549 breast
RXF 393 renal = tested on: RXF 393 renal
UACC-62 melanoma = tested on: UACC-62 melanoma
SF-295 CNS = tested on: SF-295 CNS
DU-145 prostate = tested on: DU-145 prostate
OVCAR-5 ovarian = tested on: OVCAR-5 ovarian
A498 renal = tested on: A498 renal
UO-31 renal = tested on: UO-31 renal

CN1CCN(CCOc2cc(OC3CCOCC3)c3c(Nc4c(Cl)ccc5c4OCO5)ncnc3c2)CC1
GI50 (OVCAR-3 ovarian): 1.14 µM | TGI (OVCAR-3 ovarian): 16.8 µM | GI50 (NCI-H322M lung): 0.387 µM | TGI (NCI-H322M lung): 10.3 µM | GI50 (NCI-H226 lung): 12.5 µM | TGI (NCI-H226 lung): 26.6 µM | GI50 (SK-OV-3 ovarian): 0.317 µM | TGI (SK-OV-3 ovarian): 13 µM | GI50 (SN12C renal): 0.377 µM | TGI (SN12C renal): 12.8 µM | GI50 (LOX IMVI melanoma): 0.448 µM | TGI (LOX IMVI melanoma): 7 µM | GI50 (CAKI-1 renal): 0.514 µM | TGI (CAKI-1 renal): 13.6 µM | GI50 (SF-539 CNS): 10.7 µM | TGI (SF-539 CNS): 22.6 µM | GI50 (KM12 colon): 0.658 µM | TGI (KM12 colon): 14 µM | GI50 (COLO 205 colon): 14.9 µM | TGI (COLO 205 colon): 28.1 µM | GI50 (EKVX NSCLC): 0.552 µM | TGI (EKVX NSCLC): 11.9 µM | GI50 (RPMI-8226 leukemia): 14.4 µM | TGI (RPMI-8226 leukemia): 27.5 µM | GI50 (MDA-MB-435 melanoma): 16.2 µM | TGI (MDA-MB-435 melanoma): 29.8 µM | GI50 (OVCAR-8 ovarian): 8.72 µM | TGI (OVCAR-8 ovarian): 21.3 µM | GI50 (SW-620 colon): 19.3 µM | TGI (SW-620 colon): 33.5 µM | GI50 (MDA-MB-231 breast): 2.83 µM | TGI (MDA-MB-231 breast): 17.6 µM | GI50 (HOP-92 NSCLC): 2.33 µM | TGI (HOP-92 NSCLC): 17.4 µM | GI50 (MCF7 breast): 9.74 µM | TGI (MCF7 breast): 21.7 µM | GI50 (SNB-19 CNS): 9.59 µM | TGI (SNB-19 CNS): 29 µM | GI50 (ACHN renal): 0.317 µM | TGI (ACHN renal): 12.6 µM | GI50 (MOLT-4 leukemia): 8.27 µM | TGI (MOLT-4 leukemia): 21.2 µM | GI50 (MALME-3M melanoma): 14.1 µM | TGI (MALME-3M melanoma): 27.1 µM | GI50 (IGROV1 ovarian): 0.0603 µM | TGI (IGROV1 ovarian): 0.295 µM | GI50 (K-562 leukemia): 0.132 µM | TGI (K-562 leukemia): 0.306 µM | GI50 (NCI-H23 lung): 5.77 µM | TGI (NCI-H23 lung): 20.9 µM | GI50 (U251 glioblastoma): 6.67 µM | TGI (U251 glioblastoma): 19.9 µM | GI50 (M14 melanoma): 15.2 µM | TGI (M14 melanoma): 28.6 µM | GI50 (T-47D breast): 0.171 µM | TGI (T-47D breast): 3.06 µM | GI50 (HOP-62 NSCLC): 6.29 µM | TGI (HOP-62 NSCLC): 19.7 µM | GI50 (SK-MEL-28 melanoma): 14.7 µM | TGI (SK-MEL-28 melanoma): 27.9 µM | GI50 (HT29 colon): 1.43 µM | TGI (HT29 colon): 8.86 µM | GI50 (A549 NSCLC): 1.45 µM | TGI (A549 NSCLC): 17.9 µM | GI50 (HS 578T breast): 0.387 µM | TGI (HS 578T breast): 4.35 µM | GI50 (NCI-H460 NSCLC): 12.7 µM | TGI (NCI-H460 NSCLC): 25.5 µM | GI50 (PC-3 prostate): 14.1 µM | TGI (PC-3 prostate): 35 µM | GI50 (SNB-75 CNS): 0.233 µM | TGI (SNB-75 CNS): 0.835 µM | GI50 (OVCAR-4 ovarian): 13 µM | TGI (OVCAR-4 ovarian): 26.1 µM | GI50 (UACC-257 melanoma): 2.53 µM | TGI (UACC-257 melanoma): 10.5 µM | GI50 (SF-268 CNS): 0.55 µM | TGI (SF-268 CNS): 3.18 µM | GI50 (HCC-2998 colon): 5.25 µM | TGI (HCC-2998 colon): 19 µM | GI50 (TK-10 renal): 1.67 µM | TGI (TK-10 renal): 5.54 µM | GI50 (HL-60(TB) leukemia): 22.3 µM | TGI (HL-60(TB) leukemia): 36.8 µM | GI50 (MDA-MB-468 breast): 0.403 µM | TGI (MDA-MB-468 breast): 1.95 µM | GI50 (NCI-H522 lung): 0.179 µM | TGI (NCI-H522 lung): 10.7 µM | GI50 (NCI/ADR-RES ovarian): 10.6 µM | TGI (NCI/ADR-RES ovarian): 23.8 µM | GI50 (HCT-116 colon): 10.7 µM | TGI (HCT-116 colon): 22.5 µM | GI50 (CCRF-CEM leukemia): 14.3 µM | TGI (CCRF-CEM leukemia): 27.4 µM | GI50 (SK-MEL-5 melanoma): 10.8 µM | TGI (SK-MEL-5 melanoma): 22.8 µM | GI50 ([…]-0 renal): 0.943 µM | TGI (786-0 renal): 15.2 µM | GI50 (HCT-15 colon): 3.68 µM | TGI (HCT-15 colon): 18.9 µM | GI50 (BT-549 breast): 2.77 µM | TGI (BT-549 breast): 16.2 µM | GI50 (RXF 393 renal): 0.215 µM | TGI (RXF 393 renal): 2.94 µM | GI50 (UACC-62 melanoma): 14.1 µM | TGI (UACC-62 melanoma): 27.1 µM | GI50 (SF-295 CNS): 11.4 µM | TGI (SF-295 CNS): 23.5 µM | GI50 (DU-145 prostate): 5.09 µM | TGI (DU-145 prostate): 18.7 µM | GI50 (OVCAR-5 ovarian): 0.679 µM | TGI (OVCAR-5 ovarian): 12 µM | GI50 (A498 renal): 1.95 µM | TGI (A498 renal): 12.6 µM | GI50 (UO-31 renal): 0.446 µM | TGI (UO-31 renal): 15.4 µM
